tested on: native tau aggregates; experiment: TAU radioligand in vitro displacement assay ([3H]T808, autoradiography on human AD brain sections); type: binding; conditions: compound 10 nM, radioligand [3H]T808 10 nM
Text: TAU Radioligand-In-Vitro Displacement Assay
This in vitro binding assay assesses the affinity of compounds for native tau aggregates.
AD human brains are purchased from Banner Sun Health Research Institute (Sun City, Ariz., USA). Pathological diagnosis of AD is made according to standard NIA-Reagan Institute criteria based on neuropathological data. The radioligand [^3H]T808 was synthesized in-house ([^3H]-2-[4-(2-Fluoro-ethyl)-piperidin-1-yl]-benzo[4,5]imidazo[1,2-a]pyrimidine, radiochemical purity 99.0%). As a reference cold T808 is used (2-[4-(2-Fluoro-ethyl)-piperidin-1-yl]-benzo[4,5]imidazo[1,2-a]pyrimidine). For the autoradiography FujiFilm Imaging Plates (BAS-IP TR 2025) are exposed to the sections and read with a FujiFilm IP reader (BAS-5000).
Ten μm thick human AD brain sections are generated with a cryostat (Leica CM3050) at −17° C. chamber temperature and −15° C. object temperature. Sections are transferred to Histobond+ microscope slides (Marienfeld Laboratory Glasware). After drying for 3 hours at room temperature the sections are stored at −20° C. The sections are incubated with the radioligand (10 nM) and the respective cold compound (at various concentrations) in 50 mM Tris buffer, pH 7.4 at room temperature for 30 min. After washing 3× 10 min at 4° C. in 50 mM Tris buffer, pH 7.4 and 3 quick dips in H2O dist. at 4° C. the sections are dried at 4° C. for 3 h. The sections are placed in a FujiFilm Cassette (BAS 2025), exposed with an Imaging Plate for five days and afterwards scanned with a resolution of […].
The signal intensity (Dens−PSL/mm2) in the region of interest (ROI) of the autoradiogram is quantified with the software MCID analysis (version 7.0, Imaging Research Inc.). The specific binding (SB) of [^3H]T808 binding in absence or in presence of a compound is calculated by subtracting the non-specific binding signal in the white matter, thus yielding SB[3H]T808 only and SBcompound. The % displacement by the various compounds is calculated as following: % displacement=100−(SBcompound/SB[3H]T808 only)*100. Validation Data
In each experiment cold T808 is used as a positive internal control. Co-incubation of equimolar amounts of hot and cold T808 is expected to reduce specific binding by approximately 50%.

Row | Compound | % displacement of [3H]T808 (10 nM) at 10 nM
1 | CN(C)c1ccn2cc(-c3ccc4c(c3)OCO4)nc2c1 [Example 38, (2-Benzo[1,3]dioxol-5-yl-imidazo[1,2-a]pyridin-7-yl)-dimethyl-amine] | 52%
2 | CNc1ccn2cc(-c3ccc(C)cc3)nc2c1 [Example 28, N-Methyl-(2-p-tolyl-imidazo[1,2-a]pyridin-7-yl)-amine] | 57%
3 | CNc1ccn2cc(-c3cccs3)nc2c1 [Example 102, N-(2-Thiophen-2-yl-imidazo[1,2-a]pyridin-7-yl)-methyl-amine] | 50%
4 | COc1cccc(-c2cn3ccc(N4CCC(F)CC4)cc3n2)c1 [Example 60, 7-(4-Fluoro-piperidin-1-yl)-2-(3-methoxy-phenyl)-imidazo[1,2-a]pyridine] | 14%
5 | CO[C@H]1CCN(c2ccn3cc(-c4ccc(C)cc4)nc3c2)C1 [Example 88, 7-((S)-3-Methoxy-pyrrolidin-1-yl)-2-p-tolyl-imidazo[1,2-a]pyridine] | 34%
6 | CN(C)c1ccc(-c2cn3ccc(N(C)C)cc3n2)cc1 [Example 16, [2-(4-Dimethylamino-phenyl)-imidazo[1,2-a]pyridin-7-yl]-dimethyl-amine] | 29%
7 | Cc1cccc(-c2cn3ccc(N(C)C)cc3n2)c1 [Example 26, N,N-Dimethyl-(2-m-tolyl-imidazo[1,2-a]pyridin-7-yl)-amine] | 53%
8 | FCCCOc1ccc(-c2cn3ccc(N4CCC4)cc3n2)cc1 [Example 125, 7-(Azetidin-1-yl)-2-[4-(3-fluoropropoxy)phenyl]imidazo[1,2-a]pyridine] | 32%
9 | CNc1ccn2cc(-c3ccsc3)nc2c1 [Example 100, Methyl-(2-thiophen-3-yl-imidazo[1,2-a]pyridin-7-yl)-amine] | 59%
10 | FC1CCN(c2ccn3cc(-c4ccccc4)nc3c2)CC1 [Example 5, 7-(4-Fluoropiperidin-1-yl)-2-phenylimidazo[1,2-a]pyridine] | 21%
11 | COc1cccc(-c2cn3ccc(N4CCCC4)cc3n2)c1 [Example 9, 2-(3-Methoxy-phenyl)-7-pyrrolidin-1-yl-imidazo[1,2-a]pyridine] | 33%
12 | COc1ccc(-c2cn3ccc(N4CC[C@H](F)C4)cc3n2)cc1 [6 (S), (S)-7-(3-Fluoropyrrolidin-1-yl)-2-(4-methoxyphenyl)imidazo[1,2-a]pyridine] | 8%
13 | CO[C@H]1CCN(c2ccn3cc(-c4ccccc4)nc3c2)C1 [Example 59, 7-((S)-3-Methoxy-pyrrolidin-1-yl)-2-phenyl-imidazo[1,2-a]pyridine] | 36%
14 | CCN(CC)c1ccc(-c2cn3ccc(NC)cc3n2)cc1 [Example 97, N-[2-(4-Diethylamino-phenyl)-imidazo[1,2-a]pyridin-7-yl]-methyl-amine] | 18%
15 | CNc1ccn2cc(-c3ccc4c(c3)NC(=O)CO4)nc2c1 [Example 119, 6-(7-Methylamino-imidazo[1,2-a]pyridin-2-yl)-4H-benzo[1,4]oxazin-3-one] | 46%
16 | FCCC1CCN(c2ccn3cc(-c4ccc5c(c4)OCCO5)nc3c2)CC1 [Example 33, 2-(2,3-Dihydro-benzo[1,4]dioxin-6-yl)-7-[4-(2-fluoro-ethyl)-piperidin-1-yl]-imidazo[1,2-a]pyridine] | 5%
17 | CNc1ccn2cc(-c3cccc(OCCCF)c3)nc2c1 [Example 139, 2-(3-(3-fluoropropoxy)phenyl)-N-methylimidazo[1,2-a]pyridin-7-amine] | 5%

Row | Compound | % displacement of [3H]T808 (10 nM) at 10 nM
18 | CO[C@@H]1CCN(c2ccn3cc(-c4ccccc4)nc3c2)C1 [Example 43, 7-((R)-3-Methoxy-pyrrolidin-1-yl)-2-phenyl-imidazo[1,2-a]pyridine] | 15%
19 | CNc1ccn2cc(-c3ccco3)nc2c1 [Example 101, N-(2-Furan-2-yl-imidazo[1,2-a]pyridin-7-yl)-methyl-amine] | 50%
20 | CN(C)c1ccn2cc(-c3ccc(OCF)cc3)nc2c1 [Example 18, [2-(4-Fluoromethoxy-phenyl)-imidazo[1,2-a]pyridin-7-yl]-dimethyl-amine] | 46%
21 | Cc1cccc(-c2cn3ccc(N(C)CCF)cc3n2)c1 [Example 34, (2-Fluoro-ethyl)-methyl-(2-m-tolyl-imidazo[1,2-a]pyridin-7-yl)-amine] | 41%
22 | CN(CCF)c1ccn2cc(-c3ccc4c(c3)OCO4)nc2c1 [Example 39, (2-Benzo[1,3]dioxol-5-yl-imidazo[1,2-a]pyridin-7-yl)-(2-fluoro-ethyl)-methyl-amine] | 42%
23 | CNc1ccn2cc(-c3ccc(O)c(OC)c3)nc2c1 [Example 81, 2-Methoxy-4-(7-methylamino-imidazo[1,2-a]pyridin-2-yl)-phenol] | 47%
24 | COc1ccc(-c2cn3ccc(N4CC[C@@H](F)C4)cc3n2)cc1 [7 (R), (R)-7-(3-Fluoropyrrolidin-1-yl)-2-(4-methoxyphenyl)imidazo[1,2-a]pyridine] | 11%
25 | Cc1cccc(-c2cn3ccc(N4CCC(F)CC4)cc3n2)c1 [Example 69, 7-(4-Fluoro-piperidin-1-yl)-2-m-tolyl-imidazo[1,2-a]pyridine] | 22%
26 | COc1ccc(-c2cn3ccc(N(C)C)cc3n2)cc1 [Example 20, [2-(4-Methoxy-phenyl)-imidazo[1,2-a]pyridin-7-yl]-dimethyl-amine] | 35%
27 | CNc1ccn2cc(-c3ccc(N4CCOCC4)cc3)nc2c1 [Example 103, Methyl-[2-(4-morpholin-4-yl-phenyl)-imidazo[1,2-a]pyridin-7-yl]-amine] | 47%
28 | CNc1ccn2cc(-c3ccc4c(c3)OCCO4)nc2c1 [Example 19, [2-(2,3-Dihydro-benzo[1,4]dioxin-6-yl)-imidazo[1,2-a]pyridin-7-yl]-methyl-amine] | 37%
29 | COc1ccc(-c2cn3ccc(N4CCN(CCF)CC4)cc3n2)cc1 [Example 15, 7-[4-(2-Fluoro-ethyl)-piperazin-1-yl]-2-(4-methoxy-phenyl)-imidazo[1,2-a]pyridine] | 33%
30 | CN(C)c1ccn2cc(-c3ccc4c(c3)OCCO4)nc2c1 [Example 22, [2-(2,3-Dihydro-benzo[1,4]dioxin-6-yl)-imidazo[1,2-a]pyridin-7-yl]-dimethyl-amine] | 39%
31 | FCCOc1ccc(-c2cn3ccc(N4CCC4)cc3n2)cc1 [Example 106, 7-(Azetidin-1-yl)-2-[4-(2-fluoroethoxy)phenyl]imidazo[1,2-a]pyridine] | 36%
32 | COc1cc(-c2cn3ccc(NCCF)cc3n2)ccc1O [Example 142, 4-(7-(2-fluoroethylamino)imidazo[1,2-a]pyridin-2-yl)-2-methoxyphenol] | 11%
33 | FCCNc1ccn2cc(-c3ccc4c(c3)OCCO4)nc2c1 [Example 143, 2-(2,3-dihydrobenzo[b][1,4]dioxin-6-yl)-N-(2-fluoroethyl)imidazo[1,2-a]pyridin-7-amine] | 23%

same assay, conditions: compound 1 uM, radioligand [3H]T808 10 nM

Row | Compound | % displacement of [3H]T808 (10 nM) at 1 uM
34 | FC1CCN(c2ccn3cc(-c4ccccc4)nc3c2)CC1 [Example 5, 7-(4-Fluoropiperidin-1-yl)-2-phenylimidazo[1,2-a]pyridine] | 82%
